# According to article PMC8536124 (International Journal of Molecular Sciences, 2021):
# Where two headings read alike, the source gives them in different places.
# How the values were obtained:
# Format in all cases: cell-based, human
# SF-268 = test: NCI-60 screening (SRB); conditions: five-dose
# OVCAR-8 = test: NCI-60 screening (SRB); conditions: five-dose
# COLO 205 = test: NCI-60 screening (SRB); conditions: five-dose
# EKVX = test: NCI-60 screening (SRB); conditions: five-dose
# A549/ATCC = test: NCI-60 screening (SRB); conditions: five-dose
# OVCAR-5 = test: NCI-60 screening (SRB); conditions: five-dose
# SF-539 = test: NCI-60 screening (SRB)
# OVCAR-3 = test: NCI-60 screening (SRB); conditions: five-dose
# SF-295 = test: NCI-60 screening (SRB); conditions: five-dose
# NCI-H522 = test: NCI-60 screening (SRB); conditions: five-dose
# NCI-H23 = test: NCI-60 screening (SRB); conditions: five-dose
# OVCAR-4 = test: NCI-60 screening (SRB); conditions: five-dose
# NCI-H226 = test: NCI-60 screening (SRB); conditions: five-dose
# NCI-H322M = test: NCI-60 screening (SRB); conditions: five-dose
# SNB-19 = test: NCI-60 screening (SRB); conditions: five-dose
# MDA-MB-31/ATCC = test: NCI-60 screening (SRB); conditions: five-dose
# UACC-62 = test: NCI-60 screening (SRB); conditions: five-dose
# UO-31 = test: NCI-60 screening (SRB); conditions: five-dose
# NCI-H460 = test: NCI-60 screening (SRB); conditions: five-dose
# HCT-15 = test: NCI-60 screening (SRB); conditions: five-dose
# NCI/ADR-RES = test: NCI-60 screening (SRB); conditions: five-dose
# BT-549 = test: NCI-60 screening (SRB); conditions: five-dose
# RXF 393 = test: NCI-60 screening (SRB); conditions: five-dose
# PC-3 = test: NCI-60 screening (SRB); conditions: five-dose
# [1] = tested on: NCI-60 cancer cell line panel; test: NCI-60 screening (SRB), full panel; conditions: for activity at 10 µM: 60 cell lines, 48 h
# Description: The experimental data allow the assessment of the cytostatic effect, indicated by growth inhibition values ranging between 0 and 100, as well as of the cytotoxic effect, indicated by negative values.
# The mean GI50 (molar concentration of the compound that inhibits 50% net cell growth), TGI (molar concentration of the compound leading to the total inhibition), and LC50 (molar concentration of the compound leading to 50% net cell death (presented in negative logarithm)) values across each cell line are shown in Table 2.
# The selectivity index (SI), calculated as the ratio between the full panel MG_MID60 (μM) of compounds 4, 6, and 9 by their respective subpanels MG_MID of the cell line (μM), was introduced as a quantification tool for the selectivity of each compound in terms of anticancer effect (Table 3).
# Primary anticancer assays were performed according to the NCI protocol, as described elsewhere (see e.g., http://dtp.nci.nih.gov accessed on 1 November 2018). The compounds were added at a single concentration, and the cell cultures were incubated for 48 h. The end point determinations were made with a protein-binding dye, sulforhodamine B (SRB). […] The percentage of growth was evaluated spectrophotometrically versus controls not treated with test agents after 48 h exposure and using SRB protein assay to estimate cell viability or growth. Three antitumor activity dose-response parameters were calculated for each cell line. Furthermore, mean graph midpoints (MG_MID) were calculated for each of the parameters, giving an average activity parameter over all cell lines for the tested compound. For the MG_MID calculation, insensitive cell lines were included with the highest concentration tested.
# HOP-92 = test: NCI-60 screening (SRB); conditions: five-dose
# SK-MEL-28 = test: NCI-60 screening (SRB)
# [2] = Homo sapiens, read-out: LC50 (the source's name)
smiles,measurement,setting,value
"CCN1CCN(C(=O)[C@]23CC[C@@H](C)[C@H](C)[C@H]2C2=CC[C@@H]4[C@@]5(C)CCC(=O)C(C)(C)[C@@H]5CC[C@@]4(C)[C@]2(C)CC3)CC1 [Compound 4, N-(3-oxo-ursan-12-en-28-oyl)-ethylpiperazine]",GI50,SF-268; Homo sapiens,1.77 µM
same,CC50,SF-268; [2],24.6 µM
same,TGI,SF-268,6.49 µM
same,GI50,OVCAR-8; Homo sapiens,1.1 µM
same,CC50,OVCAR-8; [2],30.1 µM
same,TGI,OVCAR-8,2.89 µM
same,GI50,COLO 205; Homo sapiens,1.02 µM
same,CC50,COLO 205; [2],14.5 µM
same,TGI,COLO 205,2.37 µM
same,GI50,EKVX; Homo sapiens,0.916 µM
same,LC50,EKVX; Homo sapiens,8.95 µM
same,TGI,EKVX,2.42 µM
same,GI50,A549/ATCC; Homo sapiens,1.47 µM
same,CC50,A549/ATCC; [2],21.8 µM
same,TGI,A549/ATCC,5.98 µM
same,GI50,OVCAR-5; Homo sapiens,0.907 µM
same,CC50,OVCAR-5; [2],3.87 µM
same,TGI,OVCAR-5,1.87 µM
same,GI50,"SF-539; Homo sapiens, SF-539, five-dose",0.843 µM
same,CC50,"SF-539; Homo sapiens, SF-539, five-dose, read-out: LC50 (the source's name)",2.8 µM
same,TGI,"SF-539; SF-539, five-dose",1.54 µM
same,Growth %,"SF-539; SF-539 CNS cancer, 1 dose 10 µM",−97.21%
same,GI50,OVCAR-3; Homo sapiens,1.1 µM
same,CC50,OVCAR-3; [2],6.52 µM
same,TGI,OVCAR-3,2.44 µM
same,GI50,SF-295; Homo sapiens,0.82 µM
same,CC50,SF-295; [2],3.08 µM
same,TGI,SF-295,1.59 µM
same,GI50,NCI-H522; Homo sapiens,0.831 µM
same,CC50,NCI-H522; [2],3.69 µM
same,TGI,NCI-H522,1.75 µM
same,GI50,NCI-H23; Homo sapiens,1.08 µM
same,CC50,NCI-H23; [2],11.6 µM
same,TGI,NCI-H23,2.90 µM
same,GI50,OVCAR-4; Homo sapiens,1.26 µM
same,CC50,OVCAR-4; [2],18 µM
same,TGI,OVCAR-4,4.74 µM
same,GI50,NCI-H226; Homo sapiens,1.78 µM
same,CC50,NCI-H226; [2],28.7 µM
same,TGI,NCI-H226,7.01 µM
same,GI50,NCI-H322M; Homo sapiens,1.57 µM
same,CC50,NCI-H322M; [2],16.8 µM
same,TGI,NCI-H322M,5.43 µM
same,GI50,SNB-19; Homo sapiens,0.849 µM
same,CC50,SNB-19; [2],3.47 µM
same,TGI,SNB-19,1.72 µM
same,GI50,MDA-MB-31/ATCC; Homo sapiens,0.779 µM
same,CC50,MDA-MB-31/ATCC; [2],2.88 µM
same,TGI,MDA-MB-31/ATCC,1.50 µM
same,GI50,UACC-62; Homo sapiens,0.835 µM
same,CC50,UACC-62; [2],3.09 µM
same,TGI,UACC-62,1.61 µM
same,GI50,UO-31; Homo sapiens,0.726 µM
same,CC50,UO-31; [2],2.79 µM
same,TGI,UO-31,1.42 µM
same,GI50,NCI-H460; Homo sapiens,0.913 µM
same,CC50,NCI-H460; [2],3.27 µM
same,TGI,NCI-H460,1.75 µM
same,GI50,HCT-15; Homo sapiens,0.977 µM
same,CC50,HCT-15; [2],7.41 µM
same,TGI,HCT-15,2.39 µM
same,GI50,NCI/ADR-RES; Homo sapiens,1.08 µM
same,CC50,NCI/ADR-RES; [2],18.3 µM
same,TGI,NCI/ADR-RES,3.24 µM
same,GI50,BT-549; Homo sapiens,0.833 µM
same,CC50,BT-549; [2],3 µM
same,TGI,BT-549,1.58 µM
same,GI50,RXF 393; Homo sapiens,0.822 µM
same,CC50,RXF 393; [2],3.69 µM
same,TGI,RXF 393,1.74 µM
same,GI50,PC-3; Homo sapiens,0.875 µM
same,CC50,PC-3; [2],18.3 µM
same,TGI,PC-3,3.17 µM
same,Positive Cytostatic Effect (cell lines with percent growth 0 to 50 / total),[1]; 1 dose 10 µM,60/60
same,Positive Cytotoxic Effect (cell lines with percent growth <0 / total),[1]; 1 dose 10 µM,60/60
same,GI50,"[1]; Homo sapiens, five-dose, bound, read-out: GI50 against all human tumor cells",< 2 µM
same,GI50,"[1]; Homo sapiens, five-dose, read-out: GI50 against the most sensitive cell lines",0.7 to 0.99 µM
same,GI50,"[1]; Homo sapiens, mean graph midpoint, full panel, five-dose, read-out: GI50 MG_MID60",1.03 µM
same,CC50,"[1]; Homo sapiens, mean graph midpoint, full panel, five-dose, read-out: LC50 MG_MID60",12.3 µM
same,activity at 10 µM,"[1]; Homo sapiens, 1 dose 10 µM, read-out: Mean Growth, %",-10.5%
same,activity at 10 µM,"[1]; Homo sapiens, 1 dose 10 µM, read-out: Range of Growth, %",-85.7 to -41.5%
same,selectivity class,"[1]; all GI50, TGI, and LC50 levels",nonselective (ratios below 3 indicate nonselective compounds)
same,TGI MG_MID60,"[1]; mean graph midpoint, full panel, five-dose",2.74 µM
same,GI50,HOP-92; Homo sapiens,0.713 µM
same,CC50,HOP-92; [2],8.22 µM
same,TGI,HOP-92,2.06 µM
same,Growth %,SK-MEL-28; 1 dose 10 µM,−64.66%
same,GI50,"SK-MEL-28; Homo sapiens, five-dose",0.889 µM
same,CC50,"SK-MEL-28; Homo sapiens, five-dose, read-out: LC50 (the source's name)",3.27 µM
same,TGI,SK-MEL-28; five-dose,1.70 µM
